Measured values from patent US7495127B2, “Potassium channel opener” (Mitsubishi Tanabe Pharma Corporation, priority 2001, dated 2009).

Assays:
BKαβ1 [1] = biological target: T1, BKαβ1 (Rattus norvegicus, UniProt Q62976); assay: Single-channel recording (inside-out patch clamp), HEK293 constantly expressing rat BKα+β1; assay type: cell-based; conditions: pCa 7.0, +40 mV
T1 construct: expressed in transfected cells; host or cells: HEK293
Protocol: According to the inside-out patch clamp technique, a single channel current was recorded on HEK293, in which rat BKα+β1 subunits were constantly expressed. All the experiments were carried out at 22-24° C.
Intracellular fluid (mM) 140 KCl, 1.2 MgCl2, 14 Glucose, 5 EGTA (the pCa was adjusted to 7 by adding a suitable amount of CaCl2 to stabilize the pCa). The pH was adjusted to 7.2 with NaOH.
Extracellular fluid (mM) 140 KCl, 4 MgCl2, 5 ATP, 10 HEPES, 0.05 EGTA. The pH was adjusted to 7.2 with KOH.
(§1) Since the test compounds were highly aliphatic, and hard to dissolve in water, they were dissolved by DMSO and preserved as 30 mM stock solutions. On administration, final concentration in the DMSO solutions were made at most 0.03%. Incidentally, DMSO was confirmed not to have any influence on BK currents, when its concentration is 0.3% or less.
In order to further confirm this point, a single channel current recording was carried out. The single channel current was recorded with respect to the cells in which BK(α+β1) channels were constantly expressed, by the inside-out patch clamp technique. The intracellular fluid (the fluid contacting the inner side of the cell membrane) was fixed at pCa 7.0. […] From these histograms, channel opening probability was calculated to show relation between the concentration and effect as shown in FIG. 5C.

BKαβ1 [2] = biological target: T1, BKαβ1; assay: Whole-cell current recording (whole-cell patch clamp), HEK293 constantly expressing rat BKα+β1; assay type: cell-based; conditions: pCa 6.5, depolarization −60 mV to +10 mV
Protocol: According to the whole-cell patch clamp technique, whole-cell currents were recorded on HEK293 cell, in which rat BKα+β1 subunits were constantly expressed. All the experiments were carried out at 22-24° C.
Pipette solution (mM) 140 KCl, 4 MgCl2, 5 ATP, 10 HEPES, 5 EGTA (the pCa was adjusted to 6.5 by adding a suitable amount of CaCl2 to stabilize the pCa). The pH was adjusted to 7.2 with KOH.
Extracellular fluid (mM) 137 NaCl, 5.9 KCl, 2.2 CaCl2, 1.2 MgCl2, 14 Glucose, 10 HEPES. The pH was adjusted to 7.4 with NaOH.
as §1
The whole-cell currents were recorded with the cells in which BK(α+β1) channels were constantly expressed, by the whole-cell patch clamp technique. The Ca^2+ concentration in the intracellular fluid was fixed at pCa 6.5 with Ca^2+-EGTA buffer. The pulse depolarizing from the resting potential −60 mV to +10 mV, was added for 150 mseconds, and the elicited currents were observed. By the depolarizing stimulus, moderately activated outward currents were observed, which are characteristic of BK(α+β1) channel (control in FIG. 4B). After establishing the whole cell, the recording was started at a point where stable current measurements were obtained for 20 minutes. […] After that, by washout, the current went back almost to the level prior to application of the test compounds (FIG. 4A). As a result of a statistical analysis based on the recordings of the 4 examples, the currents were activated by 1.90±0.21 times at concentration of 100 nM, 2.54±0.14 times at 300 nM, and 6.37±0.91 times at 1 μm, by this activating effect.

native HEK293 = assay: Outward currents in native HEK293 under whole-cell voltage clamp; assay type: cell-based, human; conditions: 1 to 10 μm; pCa 6.5
Source text: (§2) Effects of test compounds on BK channel currents were examined in single HEK293 cell expressing BK(α+β1) channels (hereinafter referred to as HEKBKαβ1) under whole-cell voltage clamp. The Ca^2+ concentration in the pipette solution was fixed at pCa 6.5 using a Ca^2+-EGTA buffer. Depolarization from −60 mV to +30 mV induced outward currents in both native HEK293 and HEKBKαβ1, but the current density was much higher in the latter (the current density at the peak: 11.0±1.8 and 95.2±20.9 pA/pF, n=5 and 6, respectively, p<0.05). […] This enhancement of outward current by pimaric acid could be removed completely by washout. Effects of other test compounds were also examined in this manner. The peak amplitude of outward current at +40 mV in the presence of 1, 3, and 10 μm resin acids was measured relative to the value taken just before the application (FIG. 6B).

BKα [3] = biological target: T2, BKα (Rattus norvegicus, UniProt Q62976); assay: Membrane current recording by whole cell voltage-clamp, HEK293 cell expressing BKα channels; assay type: cell-based
T2 construct: expressed in transfected cells; host or cells: HEK293
Source text: (§3) Calcium-activated potassium channel (hereinafter abbreviated as “BK channel” in Examples) functions with two kinds of proteins α (BKα) and β (BKβ) subunits being arranged in tetramers. BKα consists a main part of a channel and BKβ is an activity regulating factor. […] In accordance with a method of Ahring, et al. (Ahring P. K., et al., FEBS Lett., 415, pp. 67-70, 1997), cDNAs of BKα and BKβ1 genes derived from rat uterus smooth muscle (GenBank accession numbers; U55995 and AF020712) were introduced into HEK293 cells by using calcium phosphate coprecipitation transfection techniques, to constantly overexpress BKα or BKαβ.
(b) Membrane Current Recording by Whole Cell Voltage-Clamp Technique
Membrane current of the whole cell by opening of BKα channels was recorded by Whole cell voltage-clamp technique. This technique is frequently employed to analyze the functions shown by the ion channels expressed in numbers on a cell membrane as a whole, and is a well established technique (Hamil, O. P. the above mentioned reference).

BKαβ1 [4] = biological target: T1, BKαβ1; assay: BK channel currents in single HEK293 cell expressing BK(α+β1) channels (HEKBKαβ1) under whole-cell voltage clamp; assay type: cell-based; conditions: 1 to 10 μm; pCa 6.5
Source text: as §2

BKα [5] = biological target: T2, BKα; assay: Single channel current recording by inside-out patch clamp, BKα expressed on HEK293 cells; assay type: cell-based
Source text: as §3
(a) Single Channel Current Recording by Inside-Out Patch Clamp Technique
By using Inside-out patch clamp technique, fragments of cell membrane containing the channels were isolated, and by artificially controlling an environment of inside of the cell membrane, opening or closing of a single channel can be directly observed. This is a fully established method not only for functional analysis of the channel, but also for testing quantitative effects of the channel agonists (Hamil, O. P., et al., Pflgers Archiv., 391, pp. 85-100, 1981).
Under this condition, action and effect of pimaric acid for BKα was measured.
In Current Amplitude, 0 pA means a closing state. […] In FIG. 3, a relation between a concentration of pimaric acid and an effect of BK channel activation is shown under this condition. By addition of pimaric acid at concentration of 3 μm or more, a significant increase in channel opening probability was confirmed.

BKαβ1 [6] = biological target: T1, BKαβ1; assay: Concentration-dependent block of macroscopic currents by ChTX in HEKBKαβ1, in the absence and presence of pimaric acid; assay type: cell-based
Source text: The outward currents elicited by depolarization from −60 mV in 10 mV steps were enhanced at potentials positive to −20 mV. The current at +40 mV was increased from 1214±153 to 2527±448 pA (n=5, p<0.05). […] The currents at +40 mV in the presence of 10 μm pimaric acid was reduced from 2527±448 pA to 499±90 pA (p<0.01 versus before the application of and in the presence of 10 μm pimaric acid). […] The normalized data were well fitted with the Hill equation modified for the concentration-response relationship. […] The relationship in the presence of 10 μm pimaric acid was almost identical with that in its absence.

T1 sequence (Q62976 whole entry): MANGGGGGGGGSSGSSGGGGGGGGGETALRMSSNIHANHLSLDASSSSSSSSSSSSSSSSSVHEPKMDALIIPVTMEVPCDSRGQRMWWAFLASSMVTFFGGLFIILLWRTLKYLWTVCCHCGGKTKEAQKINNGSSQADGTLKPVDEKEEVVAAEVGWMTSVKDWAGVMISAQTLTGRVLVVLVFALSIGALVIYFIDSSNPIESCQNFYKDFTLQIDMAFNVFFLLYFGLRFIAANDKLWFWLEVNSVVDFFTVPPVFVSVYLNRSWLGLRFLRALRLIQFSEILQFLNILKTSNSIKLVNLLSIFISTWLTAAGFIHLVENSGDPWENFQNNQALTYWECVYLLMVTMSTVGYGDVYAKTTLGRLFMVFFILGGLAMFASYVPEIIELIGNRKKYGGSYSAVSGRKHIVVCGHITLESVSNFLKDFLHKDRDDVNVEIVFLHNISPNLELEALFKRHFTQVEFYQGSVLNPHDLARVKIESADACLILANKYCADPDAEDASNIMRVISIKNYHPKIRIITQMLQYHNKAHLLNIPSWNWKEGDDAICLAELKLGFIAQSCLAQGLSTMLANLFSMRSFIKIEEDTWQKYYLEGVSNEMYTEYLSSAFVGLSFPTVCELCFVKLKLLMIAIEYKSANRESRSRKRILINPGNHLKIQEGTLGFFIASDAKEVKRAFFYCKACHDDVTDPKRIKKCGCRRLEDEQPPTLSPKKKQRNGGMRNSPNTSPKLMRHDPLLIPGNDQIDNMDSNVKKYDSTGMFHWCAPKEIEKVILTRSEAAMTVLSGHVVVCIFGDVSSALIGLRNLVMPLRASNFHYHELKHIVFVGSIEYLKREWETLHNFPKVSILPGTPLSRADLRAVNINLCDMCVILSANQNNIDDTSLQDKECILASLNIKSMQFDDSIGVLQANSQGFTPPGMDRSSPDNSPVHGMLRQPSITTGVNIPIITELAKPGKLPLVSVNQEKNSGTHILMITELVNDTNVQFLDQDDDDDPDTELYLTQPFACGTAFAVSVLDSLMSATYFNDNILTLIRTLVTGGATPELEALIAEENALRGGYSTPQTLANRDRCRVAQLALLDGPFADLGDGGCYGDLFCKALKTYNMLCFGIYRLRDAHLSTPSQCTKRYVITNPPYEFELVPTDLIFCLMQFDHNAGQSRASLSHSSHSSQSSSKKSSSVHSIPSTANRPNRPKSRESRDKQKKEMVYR
T1 sequence (P97678 whole entry partner): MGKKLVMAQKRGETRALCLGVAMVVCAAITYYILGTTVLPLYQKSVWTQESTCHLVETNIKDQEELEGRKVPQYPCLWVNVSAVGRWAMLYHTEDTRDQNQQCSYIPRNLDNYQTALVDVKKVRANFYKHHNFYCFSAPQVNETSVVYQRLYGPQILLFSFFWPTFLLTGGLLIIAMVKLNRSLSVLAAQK
T2 sequence (Q62976 whole entry): as the sequence (Q62976 whole entry) above

CC(C)c1c(Cl)cc2c(c1Cl)CC[C@H]1[C@](C)(C(=O)O)CCC[C@]21C [dichlorodehydroabietic acid]
concentration at which channel activation was observed (BKαβ1 [1]; applied to inner side of cell membrane): ≥ 100 nM | relation between concentration and channel opening probability (BKαβ1 [1]): concentration-dependent | activation of whole-cell current (BKαβ1 [2]; 100 nM): 1.90±0.21 times | activation of whole-cell current (BKαβ1 [2]; 300 nM): 2.54±0.14 times | activation of whole-cell current (BKαβ1 [2]; 1 μm): 6.37±0.91 times

C=C[C@@]1(C)C=C2CC[C@@H]3[C@](C)(CCC[C@@]3(C)C(=O)O)[C@H]2CC1 [pimaric acid]
activation of whole-cell current (BKαβ1 [2]; 1 μm): 1.92±0.24 times | outward currents in native HEK293 (native HEK293): did not change | increase of BKα current (BKα [3]; 1 μm added to extracellular fluid, +60 mV): about 50% | outward currents in HEKBKαβ1 (BKαβ1 [4]): increased outward currents in a dose-dependent fashion | increase of opening probability (BKα [5]; 1 μM, Ca of inner side 0.3 μm, patch membrane potential +40 mV): increased by three times | time of an opening state (histograms of 30 s current recordings) (BKα [5]; 1 μm or 10 μm, +40 mV, Ca 0.1 μM): increased time of an opening state | concentration giving a significant increase in channel opening probability (BKα [5]; +40 mV, Ca 0.1 μM): ≥ 3 μm | channel activity (BKα single channel) (BKα [5]; added to solution of inner side of cell membrane at 10 μm or less, +40 mV, Ca 0.1 μM): significantly increased | BK channel opening effect relative to NS-1619 (BKα [5]; comparison with known compound): ≥ 10 times | BK channel opening effect relative to maxikdiol described in the reference (BKα [5]; comparison with literature value): at least three times or more | effect on the binding of ChTX to BK channels (BKαβ1 [6]; 10 μm pimaric acid): does not affect the binding of ChTX to BK channels | outward current at +40 mV (BKαβ1 [6]; 10 μm pimaric acid, control 1214±153 pA): 2527±448 pA

CC[N+](CC)(CC)CC [tetraethylammonium, reference compound]
inhibition of the action of pimaric acid on BKα current (BKα [3]; 1 mM tetraethylammonium): completely inhibited

charybdotoxin [ChTX]
current amplitude at +40 mV after ChTX (BKαβ1 [6]; 100 nM ChTX in the absence of pimaric acid, before 1233±226 pA): 205±46 pA | outward current at +40 mV after ChTX (BKαβ1 [6]; 100 nM ChTX in the presence of 10 μm pimaric acid, before 2527±448 pA): 499±90 pA | C (constant; native K+ currents insensitive to ChTX) (BKαβ1 [6]; absence of pimaric acid): 0.077±0.0226 | nH (Hill coefficient) (BKαβ1 [6]; absence of pimaric acid): 0.847±0.034 | C (constant; native K+ currents insensitive to ChTX) (BKαβ1 [6]; presence of 10 μm pimaric acid): 0.0965±0.0388 | nH (Hill coefficient) (BKαβ1 [6]; presence of 10 μm pimaric acid): 0.982±0.161
